# Test results: publication PMC3581553, “New Approaches of PARP-1 Inhibitors in Human Lung Cancer Cells and Cancer Stem-Like Cells by Some Selected Anthraquinone-Derived Small Molecules” (PLoS ONE, 2013)
# Read-outs that look alike come from different tables or passages of the source.
# What was measured:
# [1] = system: Oct-4- and Nanog-overexpressed A549 clone (A3); test: MTT cytotoxicity assay, A3 cells; assay type: cell-based; conditions: Homo sapiens, 48 h of drug exposure
# Experimental: (§1) Non-small cell lung cancer cells A549 and Oct-4- and Nanog-overexpressed A549 clone (clone #3; A3), presented the properties of cancer stem-like cells, as well as epithelial-mesenchymal transdifferentiation, according to our previous study. They were grown in the same conditions as RPMI 1640 media supplemented with 10% fetal bovine serum (FBS), 100 units/mL penicillin, […] streptomycin, 1 mM sodium pyruvate, 2 mM l-glutamine and 1% non-essential amino acid (NEAA) in a humidified atmosphere with 5% CO2 at 37°C. Normal fibroblast cells HEL299 from American Type Culture Collection (ATCC) were grown in MEM media supplemented with 10% FBS, 100 units/mL penicillin, […] streptomycin, 1 mM sodium pyruvate, 2 mM l-glutamine and 1% NEAA, in a humidified atmosphere with 5% CO2 at 37°C.
# (§2) The tetrazolium reagent (MTT; 3-(4,5-dimethylthiazol-2-yl)-2,5-diphenyl-tetrazolium bromide, USB) was designed to yield a colored formazan upon metabolic reduction by viable cells, [61]. Approximately 5×10^4 cells were plated onto each well of a 24-well plate and incubated in 5% CO2 at 37°C for 24 hours. To assess the in vitro cytotoxicity, each compound was dissolved in DMSO and prepared immediately before the experiments and then was diluted into the complete medium before being added to cell cultures. Test compounds were then added to the culture medium in various designated concentrations. After 48 hours, an amount of 100 µl of MTT was added to each well, and the samples were incubated at 37°C for 2 h. 100 µl DMSO was added to each well. The absorbency at 560 nm and reference absorbency at 670 nm were measured using an ELISA reader.
# [2] = system: PARP-1 mRNA expression in A3 cells; test: Quantitative RT-PCR of PARP-1 in treated A3 cells; assay type: cell-based, human
# Source text: RNA was isolated from cells with the TRIzol (Invitrogen) reagent […], and this was followed by RNA clean up with the RNeasy Minikit (QIAGEN). cDNA was produced with the First Strand cDNA Synthesis Kit (Roche). Real-time quantitative PCR reactions were set up in triplicate with the Brilliant II SYBR Green QPCR Master Mix (Stratagene) and run on an Mx3000P QPCR System (Stratagene).
# A3 clone = test: Sphere formation and cell viability assay in A3 clone; assay type: cell-based, human; conditions: treated A3 clone; for sphere formation: serum free medium with bFGF and EGF (10 ng/ml)
# NCI-60 cancer cell lines = test: NCI-60 panel of human tumor cell lines, median GI50; assay type: cell-based; conditions: median over NCI-60 cancer cell lines, read-out: median 50% growth inhibitory concentration (GI50)
# Experimental: (§3) As a primary screening, seven selected compounds were submitted to the National Cancer Institute (NCI) cell lines screen for evaluation of their anticancer activity. From the data analysis, it follows that approximately 95% of the actives from the 60 cell lines screen can be identified. The detailed methods used for the 60 cell lines panel have been described elsewhere [54]–[59]. Briefly, cellular protein levels were determined after 48 hours of drug exposure by SRB colorimetry. Through the use of a time zero cell control, the cell growth can be determined for each cell line thus allowing calculations of GI50, TGI, and LC50. Comparison to plates not exposed to drug permits determination of concentration and times of exposure conferring GI50, TGI, and LC50. […] By these criteria, seven compounds reported from our compounds bank were all active and passed on for evaluation in the full panel of 60 human tumor cell lines. The panel is organized into nine subpanels representing diverse histology: leukemia, melanoma, and cancers of the lung, colon, kidney, ovary, breast, prostate, and central nervous system.
# A549 cells = test: MTT cytotoxicity assay, A549 cells; assay type: cell-based; conditions: Homo sapiens, 48 h of drug exposure
# Experimental: as §1, §2
# HOP-92 = test: NCI-60 drug screen (SRB), NSCLC line HOP-92; assay type: cell-based, human; conditions: for GI50 / CC50: Homo sapiens; for CC50: read-out: LC50 (the source's name)
# Experimental: as §3
# [3] = 48 hours drug exposure, SRB, read-out: GI50
# [4] = NCI in vitro 60-cell lines Drug Screen, read-out: -Log GI50 (converted)
Compound,IC50 [1],expression levels of PARP-1 (mRNA) [2],cell growth / cell viability (A3 clone),sphere formation (A3 clone),GI50 (NCI-60 cancer cell lines),IC50 (A549 cells),"TGI (HOP-92; 48 hours drug exposure, SRB)",GI50 (HOP-92; [3]),"CC50 (HOP-92; 48 hours drug exposure, SRB)",GI50 (HOP-92; [4])
CN(C)CCCSc1nc2ccc3c(c2[nH]1)C(=O)c1ccccc1C3=O [NSC747854],5.88 µM,inhibit the expression levels of PARP-1,inhibit the cell growth,effectively block the sphere formation,6.92 µM,12.2 µM,–,–,–,–
O=C(CCN1CCCC1)Nc1ccc2c(c1)C(=O)c1cc(NC(=O)CCN3CCCC3)ccc1C2=O [NSC746366],5.77 µM,–,–,–,–,7.76 µM,0.82 µM,0.45 µM,34.6 µM,0.447 µM
CN1CCN(Cc2nc3ccc4c(c3[nH]2)C(=O)c2ccccc2C4=O)CC1 [NSC749235],7.67 µM,inhibit the expression levels of PARP-1,inhibit the cell growth,effectively block the sphere formation,–,10.6 µM,91.8 µM,7.97 µM,> 100 µM,7.94 µM
CN(C)CC(=O)Nc1ccc2c(c1)C(=O)c1cc(NC(=O)CN(C)C)ccc1C2=O [NSC746364],5.9 µM,–,–,–,–,4.49 µM,31.7 µM,10.4 µM,96.6 µM,10.5 µM
CCN(CC)CCC(=O)Nc1ccc2c(c1)C(=O)c1cc(NC(=O)CCN(CC)CC)ccc1C2=O [NSC746365],5.21 µM,–,–,–,–,7.66 µM,0.06 µM,0.01 µM,3.48 µM,0.0148 µM
Cc1ccc(C(=O)Nc2c(NC(=O)CCl)ccc3c2C(=O)c2ccccc2C3=O)cc1 [NSC749232],4.85 µM,inhibit the expression levels of PARP-1,inhibit the cell growth,effectively block the sphere formation,–,6.62 µM,31.7 µM,9.73 µM,> 100 µM,9.77 µM
